Laboratory results from PubChem BioAssay (NCI).
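Five concentrations, 48 hours, 96-well plates. GI50 is the concentration that inhibits growth by half. TGI: total growth inhibition.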

Assays:
Test in all cases: inhibition of tumour cell growth, NCI panel, 48 h
SK-OV-3 ovarian = tested on: SK-OV-3 ovarian
SK-MEL-28 melanoma = tested on: SK-MEL-28 melanoma
MDA-MB-231 breast = tested on: MDA-MB-231 breast
K-562 leukemia = tested on: K-562 leukemia
DU-145 prostate = tested on: DU-145 prostate
LOX IMVI melanoma = tested on: LOX IMVI melanoma
RXF 393 renal = tested on: RXF 393 renal
IGROV1 ovarian = tested on: IGROV1 ovarian
A549 NSCLC = tested on: A549 NSCLC
786-0 renal = tested on: 786-0 renal
HCC-2998 colon = tested on: HCC-2998 colon
EKVX NSCLC = tested on: EKVX NSCLC
SF-539 CNS = tested on: SF-539 CNS
OVCAR-4 ovarian = tested on: OVCAR-4 ovarian
HOP-92 NSCLC = tested on: HOP-92 NSCLC
OVCAR-3 ovarian = tested on: OVCAR-3 ovarian
MALME-3M melanoma = tested on: MALME-3M melanoma
U251 CNS = tested on: U251 CNS
SN12C renal = tested on: SN12C renal
CCRF-CEM leukemia = tested on: CCRF-CEM leukemia
ACHN renal = tested on: ACHN renal
NCI-H460 lung = tested on: NCI-H460 lung
BT-549 breast = tested on: BT-549 breast
M14 melanoma = tested on: M14 melanoma
UO-31 renal = tested on: UO-31 renal
UACC-257 melanoma = tested on: UACC-257 melanoma
CAKI-1 renal = tested on: CAKI-1 renal
HCT-15 colon = tested on: HCT-15 colon
HL-60(TB) leukemia = tested on: HL-60(TB) leukemia
RPMI-8226 leukemia = tested on: RPMI-8226 leukemia
UACC-62 melanoma = tested on: UACC-62 melanoma
MCF7 breast = tested on: MCF7 breast
OVCAR-8 ovarian = tested on: OVCAR-8 ovarian
MDA-MB-435 = tested on: MDA-MB-435
NCI/ADR-RES ovarian = tested on: NCI/ADR-RES ovarian
SF-268 CNS = tested on: SF-268 CNS
KM12 colon = tested on: KM12 colon
HS 578T breast = tested on: HS 578T breast
A498 renal = tested on: A498 renal
TK-10 renal = tested on: TK-10 renal
COLO 205 colon = tested on: COLO 205 colon
SNB-75 CNS = tested on: SNB-75 CNS
NCI-H23 lung = tested on: NCI-H23 lung
SW-620 colon = tested on: SW-620 colon
SK-MEL-2 melanoma = tested on: SK-MEL-2 melanoma
SF-295 CNS = tested on: SF-295 CNS
SK-MEL-5 melanoma = tested on: SK-MEL-5 melanoma
NCI-H522 lung = tested on: NCI-H522 lung
MOLT-4 leukemia = tested on: MOLT-4 leukemia
OVCAR-5 ovarian = tested on: OVCAR-5 ovarian
PC-3 prostate = tested on: PC-3 prostate
NCI-H226 lung = tested on: NCI-H226 lung
T-47D breast = tested on: T-47D breast
HCT-116 colon = tested on: HCT-116 colon
SR leukemia = tested on: SR leukemia
SNB-19 CNS = tested on: SNB-19 CNS
HOP-62 NSCLC = tested on: HOP-62 NSCLC

Brc1ccc2[nH]cc(-c3nc(-c4c[nH]c5ncccc45)cs3)c2c1 gave a GI50 (SK-OV-3 ovarian) of 5.71 µM, a TGI (SK-OV-3 ovarian) of 20.4 µM and a GI50 (SK-MEL-28 melanoma) of 4.27 µM. It also gave a TGI (SK-MEL-28 melanoma) of 16.1 µM, a GI50 (MDA-MB-231 breast) of 1.59 µM and a TGI (MDA-MB-231 breast) of 5.99 µM. The GI50 (K-562 leukemia) was 2.71 µM, the TGI (K-562 leukemia) was greater than 100 µM and the GI50 (DU-145 prostate) was 4.14 µM. The TGI (DU-145 prostate) was 15.7 µM, the GI50 (LOX IMVI melanoma) was 2.46 µM and the TGI (LOX IMVI melanoma) was 11 µM. For the same molecule, the GI50 (RXF 393 renal) was 1.64 µM, the TGI (RXF 393 renal) was 8.56 µM and the GI50 (IGROV1 ovarian) was 3.17 µM. The TGI (IGROV1 ovarian) was 23 µM, the GI50 (A549 NSCLC) was 3.2 µM and the TGI (A549 NSCLC) was 16.3 µM. For the same molecule, the GI50 (786-0 renal) was 1.88 µM, the TGI (786-0 renal) was 4.49 µM and the GI50 (HCC-2998 colon) was 3.59 µM. It also gave a TGI (HCC-2998 colon) of 15.7 µM, a GI50 (EKVX NSCLC) of 2.13 µM and a TGI (EKVX NSCLC) of 18.6 µM. For the same molecule, the GI50 (SF-539 CNS) was 5.37 µM, the TGI (SF-539 CNS) was 23.9 µM and the GI50 (OVCAR-4 ovarian) was 3.31 µM. The TGI (OVCAR-4 ovarian) was 20.8 µM, the GI50 (HOP-92 NSCLC) was 1.98 µM and the TGI (HOP-92 NSCLC) was 6.89 µM. For the same molecule, the GI50 (OVCAR-3 ovarian) was 5.48 µM, the TGI (OVCAR-3 ovarian) was 18.6 µM and the GI50 (MALME-3M melanoma) was 4.46 µM. It also gave a TGI (MALME-3M melanoma) of 18.8 µM, a GI50 (U251 CNS) of 3.37 µM and a TGI (U251 CNS) of 12.8 µM. The GI50 (SN12C renal) was 4.1 µM, the TGI (SN12C renal) was 19.4 µM and the GI50 (CCRF-CEM leukemia) was 3.99 µM. For the same molecule, the TGI (CCRF-CEM leukemia) was 71.8 µM, the GI50 (ACHN renal) was 2.66 µM and the TGI (ACHN renal) was 12.9 µM. For the same molecule, the GI50 (NCI-H460 lung) was 3.12 µM, the TGI (NCI-H460 lung) was 10.9 µM and the GI50 (BT-549 breast) was 6.07 µM. It also gave a TGI (BT-549 breast) of 18.9 µM, a GI50 (M14 melanoma) of 2.7 µM and a TGI (M14 melanoma) of 8.6 µM. The GI50 (UO-31 renal) was 1.16 µM, the TGI (UO-31 renal) was 13.1 µM and the GI50 (UACC-257 melanoma) was 2.5 µM. For the same molecule, the TGI (UACC-257 melanoma) was 7.26 µM, the GI50 (CAKI-1 renal) was 1.67 µM and the TGI (CAKI-1 renal) was 10.5 µM. It also gave a GI50 (HCT-15 colon) of 2.41 µM, a TGI (HCT-15 colon) of 6.86 µM and a GI50 (HL-60(TB) leukemia) of 4.29 µM. The TGI (HL-60(TB) leukemia) was greater than 100 µM, the GI50 (RPMI-8226 leukemia) was 4.82 µM and the TGI (RPMI-8226 leukemia) was 63.9 µM. The GI50 (UACC-62 melanoma) was 3.64 µM, the TGI (UACC-62 melanoma) was 16.6 µM and the GI50 (MCF7 breast) was 2.57 µM. For the same molecule, the TGI (MCF7 breast) was 13.7 µM, the GI50 (OVCAR-8 ovarian) was 4.07 µM and the TGI (OVCAR-8 ovarian) was greater than 100 µM. For the same molecule, the GI50 (MDA-MB-435) was 4.04 µM, the TGI (MDA-MB-435) was 15.8 µM and the GI50 (NCI/ADR-RES ovarian) was 3.38 µM. The TGI (NCI/ADR-RES ovarian) was 26.1 µM, the GI50 (SF-268 CNS) was 5.47 µM and the TGI (SF-268 CNS) was 19.8 µM. It also gave a GI50 (KM12 colon) of 2.92 µM, a TGI (KM12 colon) of 10.4 µM and a GI50 (HS 578T breast) of 10.7 µM. For the same molecule, the TGI (HS 578T breast) was greater than 100 µM, the GI50 (A498 renal) was 1.94 µM and the TGI (A498 renal) was 10.9 µM. It also gave a GI50 (TK-10 renal) of 5.28 µM, a TGI (TK-10 renal) of 17.8 µM and a GI50 (COLO 205 colon) of 1.13 µM. It also gave a TGI (COLO 205 colon) of 5.77 µM, a GI50 (SNB-75 CNS) of 2.08 µM and a TGI (SNB-75 CNS) of 13.4 µM. It also gave a GI50 (NCI-H23 lung) of 3.55 µM, a TGI (NCI-H23 lung) of 18.7 µM and a GI50 (SW-620 colon) of 3.79 µM. The TGI (SW-620 colon) was 14.1 µM, the GI50 (SK-MEL-2 melanoma) was 7.11 µM and the TGI (SK-MEL-2 melanoma) was 20.3 µM. For the same molecule, the GI50 (SF-295 CNS) was 2.74 µM, the TGI (SF-295 CNS) was 7.31 µM and the GI50 (SK-MEL-5 melanoma) was 2.97 µM. For the same molecule, the TGI (SK-MEL-5 melanoma) was 12.9 µM, the GI50 (NCI-H522 lung) was 3.53 µM and the TGI (NCI-H522 lung) was 10.8 µM. For the same molecule, the GI50 (MOLT-4 leukemia) was 2.97 µM, the TGI (MOLT-4 leukemia) was 35.6 µM and the GI50 (OVCAR-5 ovarian) was 4.49 µM. For the same molecule, the TGI (OVCAR-5 ovarian) was 17.6 µM, the GI50 (PC-3 prostate) was 2.99 µM and the TGI (PC-3 prostate) was 13.5 µM. The GI50 (NCI-H226 lung) was 5.02 µM, the TGI (NCI-H226 lung) was 21.7 µM and the GI50 (T-47D breast) was 4.97 µM. For the same molecule, the TGI (T-47D breast) was 20.3 µM, the GI50 (HCT-116 colon) was 3.09 µM and the TGI (HCT-116 colon) was 12.2 µM. The GI50 (SR leukemia) was 3.25 µM, the TGI (SR leukemia) was 14.3 µM and the GI50 (SNB-19 CNS) was 5.29 µM. For the same molecule, the TGI (SNB-19 CNS) was 19.8 µM, the GI50 (HOP-62 NSCLC) was 3.76 µM and the TGI (HOP-62 NSCLC) was 17 µM.
